# Results published in patent publication US20240125767A1, “METHOD FOR EVALUATING DRUG TOXICITY” (Public University Corporation Yokohama City University, priority 2019, published 2024).
# Tested on: DILI patient-derived organoid (liver organoid from iPS cells 16-24)
# Protocol: (§1) Each of iPS cells derived from human healthy person (1383D2; Kyoto University iPS Research Institute) and iPS cells derived from patients with drug-induced liver injury (16-24; Yokohama City University) were cultured at 5% CO2 and 37° C. for 3 days in a medium obtained by adding 1% B-27 Supplements (GIBCO), BMP4 (25 ng/ml) and CHIR99021 (8 μM) to DMEM/F-12 (Gibco) (10 ml), to induce mesodermal cells.
# Each of iPS cells derived from human healthy person (1383D2; Kyoto University iPS Research Institute) and iPS cells derived from patients with drug-induced liver injury (16-24; Yokohama City University) were cultured at 5% CO2 and 37° C. for 5 days in a medium obtained by adding Wnt3a (50 ng/mL) and activin A (100 ng/ml) to a basal medium RPMI (FUJIFILM Corporation) (2 ml), to induce endodermal progenitor cells.
# as §1, with “μM) to a basal mixed medium DMEM/F-12 (Gibco)” for “μM) to DMEM/F-12 (Gibco)”, “induce mesodermal progenitor cells. […]” for “induce mesodermal cells.”, “progenitor cells. […]” for “mesodermal cells.”
compound,measurement,value
"CC1(C)S[C@@H]2[C@H](NC(=O)[C@H](N)c3ccc(O)cc3)C(=O)N2[C@H]1C(=O)O [Amoxicillin trihydrate, amoxicillin trihydrate]","Toxicity to liver organoid produced using cells derived from a DILI patient, co-cultured with blood cells (result in words)",DILI was not observed
